Key:
diabetic rhesus monkeys [1] = assay: Glucose lowering by liraglutide detected by continuous glucose monitoring (CGM); type: in vivo; settings: for Mean glucose, With liraglutide: CGM over treatment period (16 to 28 days)
Protocol: Vehicle used was 1 mM Sodium Phosphate (pH = 8) and 5% Mannitol. […] Blood samples were obtained at 0.08, 0.25, 0.50, 1.00, 2.00, 4.00, 6.00, 7.00, and 24.00 hours post-dose. […] Compound was given daily subcutaneously at 15 µg/kg in the morning each day (~8–9 am). Lira dosing started on Day 39 of the CGM period and continued for 28 days.
Surgery procedure: Rhesus monkeys underwent surgery for placement of the DSI HD-XG glucose sensor into the right carotid artery. Animals were initially sedated with 10 mg/kg ketamine IM, intubated and anesthesia was maintained through isoflurane inhalation. All monkeys received 0.01 mg/kg Buprenorphine IM, 4.4 mg/kg carprofen SC and 20 mg/kg ceftiofur SC preoperatively. A 3–4 centimeter skin incision was made on the right, mid-lateral neck over the carotid artery where the pulse was palpated. A 1–2 centimeter segment of the right carotid artery was isolated and a tight ligature was placed distally towards the head around the exposed section of vessel. A second ligature was pre-placed, but not tightened, proximally towards the chest around the exposed section of vessel to prevent excessive bleeding when the vessel was cut. A small incision was made in the artery between these two ligatures. The sensor was inserted into the lumen of the vessel and advanced towards the heart approximately 8–9 centimeters. The pre-placed ligature was tightened to prevent bleeding around the sensor. A third ligature was secured around the sensor between the previously placed ligatures and further secured around the vessel to prevent the sensor from migrating. The telemetry body was secured to the underlying musculature in the right lateral neck near the sensor entry into the artery. Monkeys received 2 mg/kg bupivacaine locally at the skin incision. All incisions were then closed routinely. The animals were removed from the isoflurane anesthesia to allow for recovery and were monitored until they were sternal and stable. Animals received 4.4 mg/kg carprofen PO or IM once the day following surgery and were observed daily for the next 10 days to assure a normal recovery. A reference electrode and telemetry body was placed in the subcutaneous tissue near the catheter entry point as recommended by DSI.
The implanted sensor transmits its signal to a repeater located on the same animal on the collar. That repeater then immediately retransmits the HD-XG data on a different frequency to a repeater receiver up to 8 meters away. […] Glucose sensor values were reported once per second.

diabetic rhesus monkeys [2] = assay: Multiscale entropy (MSE) analysis of glucose dynamics before and during liraglutide treatment; type: in vivo; settings: 15 µg/kg sc daily
Protocol: Details about the definition and calculation of MSE are given in the Supplementary Materials and Methods. MSE-AUC10s-30m is the area under an MSE curve between scale factors of 10 seconds and 30 minutes, and was used as a single-number summary of the curve.
Five diabetic animals were treated with liraglutide for four weeks, beginning during the sixth week of monitoring. […] For each animal the period of the same length immediately preceding the start of liraglutide was used as the comparator (‘pre-liraglutide’) period.
Supplementary Materials and Methods
Multiscale entropy analysis, introduced by Costa et al1, is built upon a quantity called sample entropy2, which we describe first. The sample entropy of a regularly spaced time series of length N is defined using two parameters: a subsequence length, m, and a similarity threshold, r. Consider any two subsequences of length m of the time series. […]
start at the same position.) The subsequences are said to match if the i-th element of one subsequence differs from the i-th element of the other by no more than r, for all ݅=1,…,݉. Let B denote the number of matching pairs of subsequences when we consider all possible pairs of length- m subsequences from the first […] observations of the series. Next, repeat the process of counting matches, but use subsequences of length m+1instead of m, and consider all possible such subsequences taken from the full series of N observations. Let A denote the number of matching pairs among them.
Then the sample entropy is the negative natural logarithm of the ratio A/B. See Richman and Moorman 2 for details and explicit formulas. […]
Multiscale entropy calculates this sample entropy after applying various amounts of averaging to the original time series. […] The result is a new time series of averages, for which sample entropy is calculated. […]
Application of MSE analysis requires choosing values for the parameters m and r, and the set of scale factors to use. […] The smallest possible scale fact or is set by the time resolution of the series being analyzed, in our case 1 second. […]

[3] = in the clinic, cited from earlier work
Excerpt: The sixth diabetic animal, 161281, was not treated because it was already receiving insulin.

CCCCCCCCCCCCCCCC(=O)N[C@@H](CCC(=O)NCCCC[C@H](NC(=O)[C@H](C)NC(=O)[C@H](C)NC(=O)[C@H](CCC(N)=O)NC(=O)CNC(=O)[C@H](CCC(=O)O)NC(=O)[C@H](CC(C)C)NC(=O)[C@H](Cc1ccc(O)cc1)NC(=O)[C@H](CO)NC(=O)[C@H](CO)NC(=O)[C@@H](NC(=O)[C@H](CC(=O)O)NC(=O)[C@H](CO)NC(=O)[C@@H](NC(=O)[C@H](Cc1ccccc1)NC(=O)[C@@H](NC(=O)CNC(=O)[C@H](CCC(=O)O)NC(=O)[C@H](C)NC(=O)[C@@H](N)Cc1cnc[nH]1)[C@@H](C)O)[C@@H](C)O)C(C)C)C(=O)N[C@@H](CCC(=O)O)C(=O)N[C@@H](Cc1ccccc1)C(=O)N[C@H](C(=O)N[C@@H](C)C(=O)N[C@@H](Cc1c[nH]c2ccccc12)C(=O)N[C@@H](CC(C)C)C(=O)N[C@H](C(=O)N[C@@H](CCCNC(=N)N)C(=O)NCC(=O)N[C@@H](CCCNC(=N)N)C(=O)NCC(=O)O)C(C)C)[C@@H](C)CC)C(=O)O [liraglutide]
afternoon peak in glucose (diabetic rhesus monkeys [1]; all five treated diabetic rhesus, mean glucose by time of day, before and during treatment): reduced
Mean glucose, With liraglutide (diabetic rhesus monkeys [1]; diabetic rhesus animal 161282, 15 µg/kg sc daily): 208.2 mg/dL
Mean glucose, With liraglutide (diabetic rhesus monkeys [1]; diabetic rhesus animal 161283, 15 µg/kg sc daily): 109.6 mg/dL
Mean glucose, With liraglutide (diabetic rhesus monkeys [1]; diabetic rhesus animal 161284, 15 µg/kg sc daily): 183.1 mg/dL
Mean glucose, With liraglutide (diabetic rhesus monkeys [1]; diabetic rhesus animal 161286, 15 µg/kg sc daily): 236.6 mg/dL
Mean glucose, With liraglutide (diabetic rhesus monkeys [1]; diabetic rhesus animal 161288, 15 µg/kg sc daily): 140.9 mg/dL
coefficient of variation of glucose (standard deviation as a proportion of the mean), treatment vs pre-treatment (diabetic rhesus monkeys [1]; five diabetic rhesus, 15 µg/kg sc daily): no consistent change
decline of mean glucose (diabetic rhesus monkeys [1]; range over all five treated diabetic rhesus, 15 µg/kg sc daily, treatment vs pre-treatment period): 5–42%
MSE curve of glucose, treatment vs pre-treatment period (diabetic rhesus monkeys [2]; animals 161286 and 161288): higher
complexity of glucose dynamics in diabetic animals (diabetic rhesus monkeys [2]; five diabetic rhesus, 2–4 weeks of treatment): did not consistently change complexity
MSE of glucose, treatment vs pre-treatment period (diabetic rhesus monkeys [2]; three of five treated diabetic animals, 16 to 28 days): essentially no difference
time of maximum concentrations post dosing ([3]; subcutaneous administration): 8 to 12 h
mean peak (Cmax) exposure ([3]; subcutaneous single dose of 0.6 mg): 35 ng/mL
